Results taken from article PMC12040169 (PLOS Biology, 2025).

How the values were obtained:
[1] = in vitro; set-up: Viability of infected HeLa host cells, resazurin conversion, bulk resorufin fluorescence relative to DMSO; settings: human, hela cells; bulk resorufin, mean of 2
[2] = test system: T1, C. trachomatis L2/434/Bu expressing GFP (CTL2-GFP); experiment: microbe, parasite or virus in culture; set-up: C. trachomatis total inclusion area by high-content imaging, normalised to DMSO; settings: Chlamydia trachomatis, HeLa, 28.5 h; total inclusion area; read-out: % of control remaining
T1 construct: L2/434/Bu GFP intracellular growth in HeLa cells
Excerpt: We screened a library of 36,785 small molecules displaying drug-like properties and covering a wide chemical space (Fig 1A and S2A Data). In this process, we also complemented the assay described above with an imaging-based readout (Fig 1B). After measurements of bulk GFP and resorufin fluorescence, cells were fixed, stained with the DNA dye Hoechst, and imaged at a high-content imaging platform to detect chlamydial inclusions (GFP) and host cell nuclei (Hoechst). The total area and number of inclusions in individual wells and the number of nuclei then served as additional proxies for chlamydial growth and host cell viability. […] MICs were calculated as described above.

[3] = test system: T2, CTL2-GFP (C. trachomatis L2/434/Bu, GFP-expressing); experiment: microbe, parasite or virus in culture; set-up: Intracellular C. trachomatis growth in HeLa cells, bulk GFP fluorescence relative to DMSO; settings: Chlamydia trachomatis, HeLa, 28.5 h; bulk GFP, mean of 2; read-out: % of control remaining
T2 construct: L2/434/Bu, GFP-expressing
Protocol: MICs were calculated as described above.

SMILES | viability at 28.5 h, 1 µM [1] [%] | viability at 28.5 h, 5 µM [1] [%] | viability at 28.5 h, 10 µM [1] [%] | activity at 1 µM [2] [%] | activity at 5 µM [2] [%] | activity at 10 µM [2] [%] | activity at 1 µM [3] [%] | activity at 5 µM [3] [%] | activity at 10 µM [3] [%]
Cc1ccc(OCc2ccccc2)c(C(CCN(C(C)C)C(C)C)c2ccccc2)c1 (stereo not drawn) [CBK017906] | 91.6 | 92.3 | 86 | 112 | 73.2 | 22 | 148 | 124 | 61.5
CC(=O)NC[C@H]1CN(c2ccc(-c3nnc(C(C)O)s3)c(F)c2)C(=O)O1 (stereo partly drawn) [CBK017968] | 91.4 | 90.3 | 90.8 | 46.6 | 0.644 | 0.166 | 51.4 | 2.06 | 5.93
Cc1noc(-c2ccc3c(c2O)OCCO3)c1-c1ccc(Cl)cc1 [CBK018086] | 96.5 | 97.6 | 99 | 73.6 | 0.782 | 0.691 | 62.5 | 3.44 | 2.13
CC(=O)NC[C@H]1CN(c2ccc3c(c2)CCN(C(C)=O)CC3)C(=O)O1 [CBK018491] | 91.8 | 95.1 | 112 | 57.6 | 10.2 | 1.08 | 112 | 8.52 | 0.0674
CC(=O)NC[C@H]1CN(c2ccc3c(c2)CCN(C(=O)Oc2ccccc2)CC3)C(=O)O1 [CBK018498] | 98.7 | 94.2 | 97.3 | 72.8 | 12.5 | 3.33 | 125 | 13.7 | 1.02
CC(=O)NC[C@H]1CN(c2ccc3c(c2)CCN(C(=O)Cc2ccccc2)CC3)C(=O)O1 [CBK018499] | 92.9 | 95.9 | 92.1 | 38 | 0.495 | 0.215 | 37.5 | 2.41 | 5.46
CCCCc1ccc(Nc2csc(N)n2)cc1 [CBK020594] | 89.3 | 84.9 | 76.9 | 58.1 | 0.609 | 0.496 | 67.9 | 10.8 | 6.72
C1=C(CCNCCc2ccccc2)c2ccccc2C12CCCC2 [CBK024723] | 96.5 | 89.8 | 97.2 | 112 | 42.8 | 0.759 | 137 | 49.2 | 3.86
CN1CCCN(c2cc(C(F)(F)F)c3scc(C(=O)NCc4cccc(F)c4F)c3n2)CC1 [CBK036386T] | 99 | 101 | 101 | 69.4 | 59.6 | 46.9 | 124 | 97.2 | 57.7
Cc1ccc2[nH]c3c(c2c1)CCOC31CCN(Cc2ccccc2-c2ccccc2)CC1 [CBK039915] | 99.1 | 93.6 | 100 | 27.9 | 15.9 | 7.2 | 69.3 | 33.8 | 27.9
Fc1cc(CN2CCC3(CC2)OCCc2c3[nH]c3ccc(Br)cc23)cc(F)c1F [CBK039943] | 98.2 | 92.1 | 90.4 | 102 | 32.3 | 21.4 | 121 | 66.6 | 46.8
CC(C)c1ccc(S(=O)(=O)Nc2cccc(SC(F)(F)F)c2)cc1 [CBK044581] | 96.5 | 95.7 | 103 | 116 | 69.4 | 80.6 | 113 | 76 | 82.6
CCc1nnc(NS(=O)(=O)c2ccc(NC(=S)Nc3ccc(F)cc3)cc2)s1 [CBK050037] | 98.2 | 89.3 | 93.2 | 98.5 | 26.5 | 17.6 | 72 | 22.8 | 13.7
O=C(Nc1ccc(F)cc1)c1[nH]c2ccccc2c1NS(=O)(=O)c1cc(Cl)sc1Cl [CBK050094] | 90 | 96.8 | 86.9 | 126 | 99.9 | 62.7 | 151 | 124 | 118
COc1ccc([C@@]23CC=C(N(Cc4ccccc4)C(=O)Nc4ccc(F)c(F)c4)C[C@@H]2N(C)CC3)cc1OC [CBK050179] | 93.3 | 95 | 112 | 62.1 | 80.2 | 52.4 | 105 | 86.7 | 69.8
O=S(=O)(Nc1ccc(C(F)(F)F)cc1Cl)c1cc(Br)c(Cl)s1 [CBK057196] | 90.4 | 93.1 | 88.2 | 114 | 75.1 | 57.9 | 142 | 108 | 69.6
Cc1cc(C)c2c(N)c(C(=O)Nc3ccc(Br)cc3)sc2n1 [CBK072019] | 97.9 | 98.9 | 106 | 98.4 | 59.7 | 91 | 107 | 95.1 | 100
COc1cccc(CNc2ccc(N3CCOCC3)cc2)c1OCc1ccccc1F [CBK074406] | 86.4 | 83.8 | 90.9 | 130 | 63.6 | 41.5 | 135 | 97.1 | 65.4
COc1ccc([C@@]23CC[C@@H](NC(=O)c4ccc(-c5ccccc5)cc4)CC2N(C)CC3)cc1OC (stereo partly drawn) [CBK074973T] | 93.9 | 94.3 | 87.1 | 118 | 93.3 | 31.1 | 113 | 78.4 | 39.7
CC(C)(C)c1cc(C(=O)Nc2ccncc2)n(Cc2ccc(Cl)cc2Cl)n1 [CBK107284] | 94.9 | 94 | 97.3 | 117 | 57.8 | 39.7 | 116 | 74.6 | 24.2
O=[N+]([O-])c1cc([N+](=O)[O-])c2cccnc2c1NNc1nncc2ccccc12 [CBK110409] | 93 | 89.1 | 86.6 | 108 | 63.9 | 31 | 107 | 69 | 22.1
Cc1ccc(C(=O)NCCCN2CCC3(CC2)OCCc2c3[nH]c3ccccc23)cc1 [CBK113485] | 86.4 | 88 | 78.1 | 88.7 | 33.7 | 5.52 | 114 | 80 | 21.4
CN(C)CCCNC(=O)Nc1cccc(-c2nc(-c3ccc(C#N)cc3)cnc2N)c1 [CBK116287] | 104 | 89.1 | 97.5 | 116 | 66.5 | 4.68 | 102 | 71.8 | 14.2
COC(=O)CCc1ccc(-c2cnc(N)c(-c3ccc(O)cc3)n2)cc1 [CBK122809] | 114 | 118 | 113 | 92.1 | 83.5 | 80.2 | 122 | 108 | 93.5
